Drawing on patent US20260028330A1, “HETEROARYL CARBOXAMIDE AND RELATED GPR84 ANTAGONISTS AND USES THEREOF” (LIMINAL BIOSCIENCES LIMITED, priority 2022, published 2026), this text covers IC50 and inhibition for 36 molecules.

The assay deals with T1, human GPR84 receptor (Homo sapiens, UniProt Q9NQS5).
T1 construct: host or cells: HEK293 cells, transient transfection
The assay can be described thus: Gαi biosensor BRET assay in transfected HEK293 cells (antagonism of GPR84 agonist ZQ-16). Particulars: 200 nmol/L ZQ-16; for inhibition at 2 µM: code A = 2 μM; for inhibition at 10 µM: code F = 10 μM. Format: cell-based. The text has this: Background—The following assays can be used for determination of GPR84 activation in living HEK293 cells. The Gαi BRET biosensor (Gagnon et al., 2018; Gales et al., 2006. Nat Struct Mol Biol. 13, 778-86; Saulieres et al., 2012. Nat Chem Biol. 8, 622-30) allows to directly monitor GPR84-mediated activation of Gαi. The Gαi biosensor consists of a Rluc8-tagged Gαi2 subunit, a GFP10-tagged Gγ2 subunit, and an untagged Gβ1. Agonist stimulation and GPR84 activation triggers a physical separation between the RLuc8-Gαi donor and the GFP10-Gγ2 acceptor, resulting in a decrease in BRET signal whose amplitude is correlated to ligand efficacy (Gales et al., 2006). Moreover, signaling functions of GPCRs are tightly regulated by endocytosis, the targeting of receptors to endosomes and their sorting to lysosomes or recycling to the plasma membrane. The early endosomes (EEs) trafficking assay (Namkung et al., 2016. Nat Commun. 7, 12178) uses Rluc8-tagged GPR84 and Renilla GFP (rGFP) attached to the FYVE domain from human endofin/zinc finger FYVE domain-containing protein 16, which binds phosphatidylinositol 3-phosphate in EEs. Agonist stimulation of GPR84-Rluc8 leads to trafficking of the receptor to EEs, and ensuing increase of the donor concentration relative to the rGFP-FYVE acceptor anchored in the same cellular compartment, and thus results in an increase in BRET signal.
Plasmids—The cDNA clones for human GPR84 receptor, human Gαi2, Gβ1, and Gγ2 were obtained from the cDNA Resource Center (www.cdna.org). GFP10 (F64L, S147P, S202F and H231L variant of Aequorea victoria Green Fluorescent Protein) gBlocks gene fragments (Integrated DNA Technologies, IA) and linker were inserted in frame at the N-terminus of human Gγ2. Rluc8 (A55T, C124A, S130A, K136R, A143M, M185V, M253L, and S287L variant of the Renilla reniformis luciferase) gBlocks gene fragment was inserted with linkers in frame in between residues 91 and 92 of Gα2 or at the C-terminus of GPR84. The FYVE domain from human endofin (residues Q739 to K806) attached in frame at the C terminus of a humanized Renilla GFP (rGFP), were synthesized as gBlocks gene fragments.
Bioluminescence Resonance Energy Transfer (BRET) Measurement—HEK293 cells were transfected with GPR84-Rluc8 and rGFP-FYVE for the EEs trafficking biosensor or with GPR84, Gαi2-Rluc8, GFP10-Gγ2, and Gβ1 for the Gαi biosensor. The following day, transiently transfected cells were seeded in 96-well white clear bottom microplates coated with poly-D-lysine and left in culture for 24 hours. Cells were washed once with Tyrode's buffer (140 mmol/L NaCl, 1 mmol/L CaCl2, 2.7 mmol/L KCl, 0.49 mmol/L MgCl2, 0.37 mmol/L NaH2PO4, 5.6 mmol/L glucose, 12 mmol/L NaHCO3, and 25 mmol/L HEPES, pH 7.5) before performing assays in Tyrode's buffer. Test compounds were incubated with cells for 5 (Gui) or 15 (EEs) minutes at 37° C. before addition of 200 nmol/L of the GPR84 agonist ZQ-16 (2-(Hexylthio)-6-hydroxy-4(3H)-pyrimidinone) for 5 minutes at room temperature (Gui) or 30 minutes at 37° C. (EEs). The Rluc8 substrate coelenterazine 400A (Prolume, Lakeside, AZ) was added at a final concentration of 5 μmol/L and BRET readings were collected using an Infinite M1000 microplate reader (Tecan, Morrisville, NC). BRET^2 readings between Rluc8 and GFP10 or rGFP were collected by sequential integration of the signals detected in the 370 to 450 nm (Rluc8) and 510 to 540 nm (GFP10, rGFP) windows. The BRET signal was calculated as the ratio of light emitted by acceptor (GFP10, rGFP) over the light emitted by donor (Rluc8). The values were corrected to net BRET by subtracting the background BRET signal obtained in cells transfected with Rluc8 constructs alone. Ligand-promoted net BRET values were calculated by subtracting vehicle-induced net BRET from ligand-induced net BRET.
On the technique in general: In BRET a luciferase serves as donor, and the signal depends on an acceptor being close.

T1 sequence (Q9NQS5 whole entry): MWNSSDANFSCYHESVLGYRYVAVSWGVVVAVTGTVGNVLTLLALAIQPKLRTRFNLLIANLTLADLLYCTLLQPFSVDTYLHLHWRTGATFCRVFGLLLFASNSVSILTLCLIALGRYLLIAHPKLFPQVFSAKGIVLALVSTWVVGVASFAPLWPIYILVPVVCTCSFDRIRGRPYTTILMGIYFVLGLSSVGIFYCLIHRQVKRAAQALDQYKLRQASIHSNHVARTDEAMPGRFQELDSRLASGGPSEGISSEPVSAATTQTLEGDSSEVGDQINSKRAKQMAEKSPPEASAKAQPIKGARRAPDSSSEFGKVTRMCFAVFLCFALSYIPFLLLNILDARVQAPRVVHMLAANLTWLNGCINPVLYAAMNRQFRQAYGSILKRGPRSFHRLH

Take `O=C(c1cn(CC2OCC3(CC3)CO2)nn1)N(c1cc(C#CC2CC2)ccc1Br)C1CC1` [Compound I-92]: the IC50 (as a rule, the concentration needed to halve the response being measured) lay in the range of 300 to 1000 nM. Also, the inhibition (commonly the drop in the measured response relative to a control, in per cent) at 2 µM (HEK293, single concentration) was greater than 75%.

On to `Cc1ccc(C#CC2CC2)cc1N(C)c1cn(CC(=O)N(C)C)nn1` [Compound I-7, 2-(4-((5-(cyclopropylethynyl)-2-methylphenyl)(methyl)amino)-1H-1,2,3-triazol-1-yl)-N,N-dimethylacetamide], for which, under “HEK293, single concentration”, the inhibition at 10 µM is greater than 75%.

The molecule `COc1cc(C#CC2CC2)cc(N(C)C(=O)c2cn(CC3OCC4(CC4)CO3)nn2)c1` [Compound I-99] registered an inhibition at 10 µM (HEK293, single concentration) of 25 to 50%.

As for `CN(C(=O)c1cn(CC2OCC3(CC3)CO2)nn1)c1cc(C#CC2CC2)ccc1O` [Compound I-49], the inhibition at 10 µM (HEK293, single concentration) is 25 to 50%.

`Cc1ccc(C#CC2CC2)cc1C(=O)Nc1cn(CC2OCC3(CC3)CO2)nn1` [Compound I-9, N-(1-((5,7-dioxaspiro[2.5]octan-6-yl)methyl)-1H-1,2,3-triazol-4-yl)-5-(cyclopropylethynyl)-2-methylbenzamide] gave an inhibition at 6.7 µM (HEK293, single concentration, code E = 6.7 μM) of no more than 25%.

Molecule `Cc1cc(C#CC2CC2)cc(F)c1N(C)C(=O)c1cn(CC2OCC3(CC3)CO2)nn1` [Compound I-32] returned an IC50 of no more than 300 nM. Also, under “HEK293, single concentration”, the inhibition at 10 µM is greater than 75%.

`O=C(c1cn(CC2OCC3(CC3)CO2)nn1)N1CCCc2c(C#CC3CC3)cccc21` [Compound I-28] showed an inhibition at 10 µM (HEK293, single concentration) of 50 to 75%.

The molecule `CN(C(=O)c1cn(CC2OCC3(CC3)CO2)nn1)c1ccc(C#CC2CC2)cc1F` [Compound I-29] gave an IC50 of no more than 300 nM. The molecule further showed an inhibition at 2 µM (HEK293, single concentration) greater than 75%.

`CN(C)c1ccc(C#CC2CC2)cc1N(C)C(=O)c1cn(CC2OCC3(CC3)CO2)nn1` [Compound I-26] came in with a concentration for half-maximal inhibition (IC50) of 300 to 1000 nM. For the same molecule, where the note is “HEK293, single concentration”, the inhibition at 10 µM was greater than 75%.

On to `Cc1cc(C#CC2CC2)ccc1N(C)C1(c2cn(CC3OCC4(CC4)CO3)nn2)COC1` [Compound I-95], for which, under “HEK293, single concentration”, the inhibition at 10 µM was greater than 75%.

The molecule `Cc1ccc(C#CC2CC2)c(F)c1N(C)C(=O)c1cn(CC2OCC3(CC3)CO2)nn1` [Compound I-37] returned a half-inhibitory concentration (IC50) of no more than 300 nM. The molecule also returned an inhibition at 10 µM (HEK293, single concentration) greater than 75%.

`Cc1cc(C#CC2CC2)ccc1N(C)S(=O)(=O)c1cn(CC2OCC3(CC3)CO2)nn1` [Compound I-56]: the inhibition at 10 µM (HEK293, single concentration) is greater than 75%.

The molecule `O=C(c1cn(CC2OCC3(CC3)CO2)nn1)N1CCc2c(C#CC3CC3)cccc21` [Compound I-25] showed an inhibition at 2 µM (HEK293, single concentration) of no more than 25%.

Turning to `Cc1ccc(C#CC2CC2)cc1N(C)S(=O)(=O)c1cn(CC2OCC3(CC3)CO2)nn1` [Compound I-55], where the note is “HEK293, single concentration”, the inhibition at 10 µM was greater than 75%.

Molecule `Cc1cc(C#CC2CC2)cnc1CN(C)c1cn(CC2OCC3(CC3)CO2)nn1` [Compound I-5, 1-((5,7-dioxaspiro[2.5]octan-6-yl)methyl)-N-((5-(cyclopropylethynyl)-3-methylpyridin-2-yl)methyl)-N-methyl-1H-1,2,3-triazol-4-amine] came in with a 50% inhibitory concentration (IC50) of 300 to 1000 nM. The molecule further displayed an inhibition at 10 µM (HEK293, single concentration) greater than 75%.

As to `CN(C(=O)c1cn(CC2OCC3(CC3)CO2)nn1)c1cc(C#CC2CC2)ccc1Br` [Compound I-44], the IC50 is 300 to 1000 nM. Also, the inhibition at 10 µM (HEK293, single concentration) is greater than 75%.

In the case of `O=C(c1cn(CC2OCC3(CC3)CO2)nn1)N(c1ccc(C#CC2CC2)cc1F)C1CC1` [Compound I-91], the IC50 was no more than 300 nM. Where the note is “HEK293, single concentration”, the inhibition at 2 µM is greater than 75%.

`Cc1cc(C#CC2CC2)ccc1CN(C)c1cn(CC2OCC3(CC3)CO2)nn1` [Compound I-22] had an inhibition at 10 µM (HEK293, single concentration) greater than 75%.

Take `Cc1cc(C#CC2CC2)cc(C)c1NC(=O)c1cn(CC2OCC3(CC3)CO2)nn1` [Compound I-41]: the inhibition at 10 µM (HEK293, single concentration) was no more than 25%.

With `Cc1ccc(C#CC2CC2)c2c1N(C(=O)c1cn(CC3OCC4(CC4)CO3)nn1)CCC2` [Compound I-48], the inhibition at 10 µM (HEK293, single concentration) is greater than 75%.

In turn, `O=C(c1cn(CC2OCC3(CC3)CO2)nn1)N(c1cc(C#CC2CC2)ccc1F)C1CC1` [Compound I-90] returned a half-maximal inhibitory concentration (IC50) of no more than 300 nM. For the same molecule, for the setting “HEK293, single concentration”, the inhibition at 10 µM is greater than 75%.

`Cc1ccc(C#CC2CC2)cc1N(C)C(=O)c1ccc(OCC(=O)N(C)C)nc1C` [Compound I-2, N-(5-(cyclopropylethynyl)-2-methylphenyl)-6-(2-(dimethylamino)-2-oxoethoxy)-N,2-dimethylnicotinamide] displayed an inhibition at 10 µM (HEK293, single concentration) of no more than 25%.

Take `Cc1ccc(C#CC2CC2)cc1N(C)Cc1cn(CC2OCC3(CC3)CO2)nn1` [Compound I-12, N-((1-((5,7-dioxaspiro[2.5]octan-6-yl)methyl)-1H-1,2,3-triazol-4-yl)methyl)-5-(cyclopropylethynyl)-N,2-dimethylaniline]: for the setting “HEK293, single concentration”, the inhibition at 10 µM is 25 to 50%.

Where the note is “HEK293, single concentration”, `Cc1c(N(C)C(=O)c2ccc(C#CC3CC3)cc2)nnn1CC1OCC2(CC2)CO1` [Compound I-61] gave an inhibition at 10 µM of 50 to 75%.

`CN(C(=O)c1cn(CC2OCC3(CC3)CO2)nn1)c1ccc(C#CC2CC2)cc1Cl` [Compound I-94]: the concentration for half-maximal inhibition (IC50) is no more than 300 nM. In addition, the inhibition at 2 µM (HEK293, single concentration) is greater than 75%.

Molecule `Cc1ccc(C#CC2CC2)cc1N(C)C(=O)c1ccc(=O)n(CC(=O)N(C)C)c1C` [Compound I-3, N-(5-(cyclopropylethynyl)-2-methylphenyl)-1-(2-(dimethylamino)-2-oxoethyl)-N,2-dimethyl-6-oxo-1,6-dihydropyridine-3-carboxamide] came in with an inhibition at 10 µM (HEK293, single concentration) of no more than 25%.

In turn, `O=C(c1cn(CC2OCC3(CC3)CO2)nn1)N(c1ccc(C#CC2CC2)cc1Br)C1CC1` [Compound I-93] displayed a 50% inhibitory concentration (IC50) of no more than 300 nM. The inhibition at 2 µM (HEK293, single concentration) was greater than 75%.

As to `CCc1ccc(C#CC2CC2)cc1N(C)C(=O)c1cn(CC2OCC3(CC3)CO2)nn1` [Compound I-104], the 50% inhibitory concentration (IC50) is 300 to 1000 nM. In addition, the inhibition at 10 µM (HEK293, single concentration) is greater than 75%.

In turn, `O=C(Nc1cc(C#CC2CC2)ccc1C1CC1)c1cn(CC2OCC3(CC3)CO2)nn1` [Compound I-45] registered an inhibition at 10 µM (HEK293, single concentration) of no more than 25%.

`Cc1ccc(C#CC2CC2)cc1NC(=O)c1cn(CC2OCC3(CC3)CO2)nn1` [Compound I-14] showed an inhibition at 10 µM (HEK293, single concentration) of no more than 25%.

`Cc1ccc(C#CC2CC2)cc1Nc1cn(CC(=O)N(C)C)nn1` [Compound I-6, 2-(4-((5-(cyclopropylethynyl)-2-methylphenyl)amino)-1H-1,2,3-triazol-1-yl)-N,N-dimethylacetamide] returned an inhibition at 2 µM (HEK293, single concentration) of no more than 25%.

For the setting “HEK293, single concentration”, `Cc1c(NC(=O)c2ccc(C#CC3CC3)cc2)nnn1CC1OCC2(CC2)CO1` [Compound I-62] had an inhibition at 10 µM of no more than 25%.

With `CN(C(=O)c1cn(CC2OCC3(CC3)CO2)nn1)c1cc(C#CC2CC2)ccc1F` [Compound I-31], the IC50 is 1000 to 3000 nM. For the same molecule, for the setting “HEK293, single concentration”, the inhibition at 10 µM was greater than 75%.

On to `O=C(Nc1c(F)cc(C#CC2CC2)cc1F)c1cn(CC2OCC3(CC3)CO2)nn1` [Compound I-42], for which, where the note is “HEK293, single concentration”, the inhibition at 10 µM was no more than 25%.

Take `CN(C)c1cc(C#CC2CC2)ccc1N(C)C(=O)c1cn(CC2OCC3(CC3)CO2)nn1` [Compound I-1, 1-((5,7-dioxaspiro[2.5]octan-6-yl)methyl)-N-(4-(cyclopropylethynyl)-2-(dimethylamino)phenyl)-N-methyl-1H-1,2,3-triazole-4-carboxamide]: the IC50 lay within 300 to 1000 nM. For the setting “HEK293, single concentration”, this molecule displayed an inhibition at 10 µM greater than 75%.

`COc1cc(C#CC2CC2)cc(NC(=O)c2cn(CC3OCC4(CC4)CO3)nn2)c1` [Compound I-98] registered an inhibition at 10 µM (HEK293, single concentration) of no more than 25%.
